{"source": "ChEMBL document CHEMBL1157329", "about": "“Granulatamides A and B, cytotoxic tryptamine derivatives from the soft coral Eunicella granulata” (2006)", "format_in_all_cases": "functional", "key": {"[1]": {"system": "DU-145", "test": "Cytotoxicity against human DU145 cells by SRB assay"}, "[2]": {"system": "LNCaP", "test": "Cytotoxicity against human LNcaP cells by SRB assay"}, "[3]": {"system": "SK-OV-3", "test": "Cytotoxicity against human SK-OV-3 cells by SRB assay"}, "[4]": {"test": "Cytotoxicity against human IGROV cells by SRB assay"}, "[5]": {"test": "Cytotoxicity against human ecteinascidin-743-resistant IGROV-ET cells by SRB assay"}, "[6]": {"system": "SK-BR-3", "test": "Cytotoxicity against human SK-BR3 cells by SRB assay"}, "[7]": {"system": "SK-MEL-28", "test": "Cytotoxicity against human SK-MEL-28 cells by SRB assay"}, "[8]": {"test": "Cytotoxicity against human HMEC1 cells by SRB assay", "conditions": "HMEC-1"}, "[9]": {"system": "A549", "test": "Cytotoxicity against human A549 cells by SRB assay"}, "[10]": {"system": "K562", "test": "Cytotoxicity against human K562 cells by SRB assay"}, "[11]": {"system": "PANC-1", "test": "Cytotoxicity against human PANC1 cells by SRB assay"}, "[12]": {"system": "HT-29", "test": "Cytotoxicity against human HT29 cells by SRB assay"}, "[13]": {"system": "LoVo", "test": "Cytotoxicity against human LOVO cells by SRB assay"}, "[14]": {"system": "LoVo", "test": "Cytotoxicity against human doxorubicin-resistant LOVO cells by SRB assay"}, "[15]": {"system": "HeLa", "test": "Cytotoxicity against human HeLa cells by SRB assay"}, "[16]": {"system": "HeLa", "test": "Cytotoxicity against human aplidin-resistant HeLa cells by SRB assay"}}}
{"smiles": "CCCCCCCCC/C(C)=C\\C(=O)NCCc1c[nH]c2ccccc12", "note": "[GRANULATAMIDE A]", "values": [{"measurement": "GI50", "setting": "[1]", "result": 1.7, "unit": "µM"}, {"measurement": "GI50", "setting": "[2]", "result": 4.7, "unit": "µM"}, {"measurement": "GI50", "setting": "[3]", "result": 11.6, "unit": "µM"}, {"measurement": "GI50", "setting": "[4]", "result": 6.7, "unit": "µM"}, {"measurement": "GI50", "setting": "[5]", "result": 12.7, "unit": "µM"}, {"measurement": "GI50", "setting": "[6]", "result": 2.7, "unit": "µM"}, {"measurement": "GI50", "setting": "[7]", "result": 3.9, "unit": "µM"}, {"measurement": "GI50", "setting": "[8]", "result": 6.2, "unit": "µM"}, {"measurement": "GI50", "setting": "[9]", "result": 6.7, "unit": "µM"}, {"measurement": "GI50", "setting": "[10]", "result": 6.8, "unit": "µM"}, {"measurement": "GI50", "setting": "[11]", "result": 10.4, "unit": "µM"}, {"measurement": "GI50", "setting": "[12]", "result": 2.2, "unit": "µM"}, {"measurement": "GI50", "setting": "[13]", "result": 10.5, "unit": "µM"}, {"measurement": "GI50", "setting": "[14]", "result": 12, "unit": "µM"}]}
{"smiles": "CCCCCCC/C(C)=C/C(C)=C\\C(=O)NCCc1c[nH]c2ccccc12", "note": "[GRANULATAMIDE B]", "values": [{"measurement": "GI50", "setting": "[1]", "result": 7.7, "unit": "µM"}, {"measurement": "GI50", "setting": "[2]", "result": 3.5, "unit": "µM"}, {"measurement": "GI50", "setting": "[4]", "result": 8.2, "unit": "µM"}, {"measurement": "GI50", "setting": "[5]", "result": 6.7, "unit": "µM"}, {"measurement": "GI50", "setting": "[6]", "result": 6, "unit": "µM"}, {"measurement": "GI50", "setting": "[7]", "result": 10.6, "unit": "µM"}, {"measurement": "GI50", "setting": "[9]", "result": 8.9, "unit": "µM"}, {"measurement": "GI50", "setting": "[10]", "result": 4.3, "unit": "µM"}, {"measurement": "GI50", "setting": "[11]", "result": 6.5, "unit": "µM"}, {"measurement": "GI50", "setting": "[12]", "result": 13.8, "unit": "µM"}, {"measurement": "GI50", "setting": "[13]", "result": 8.6, "unit": "µM"}, {"measurement": "GI50", "setting": "[14]", "result": 10, "unit": "µM"}, {"measurement": "GI50", "setting": "[15]", "result": 9.7, "unit": "µM"}, {"measurement": "GI50", "setting": "[16]", "result": 9, "unit": "µM"}]}
